According to patent US4410527A, “Substituted thienobenzodiazepinones and salts thereof” (Dr. Karl Thomae Gesellschaft mit beschrankter Haftung, priority 1982, dated 1983):

Experiments:
[1] = target: muscarinic receptors (cerebral cortex); assay: Binding to muscarinic receptors, 3H-N-methylscopolamine displacement, cerebral cortex; set-up: species or system rat (male Sprague-Dawley); settings: rat cerebral cortex homogenate 1:3000, 0.3 n molar 3H-NMS, pH 7.4, 30° C., 45 minutes; read-out: Receptor binding tests IC50 Cortex
Method: (§1) 2. Studies of Binding to Muscarinic Receptors: Determination of the IC50 value
(§2) The organ donors were male Sprague-Dawley rats with a body weight of from 180 to 220 gm. After the heart, stomach and cerebral cortex had been removed, the remainder of the operation was carried out in ice-cold Hepes-HCl buffer (pH 7.4; 100 m molar NaCl, 10 m molar MgCl2). The smooth muscle of the fundus of the stomach was separated from the mucous membrane of the stomach and subjected to preliminary homogenization. The whole heart was cut up with scissors. All the organs were then homogenized in a Potter apparatus.
(§3) For the binding test, the homogenized organs were diluted as follows:
(§4) The homogenized organ preparations were incubated at a specific concentration of the radioligand and with a series of concentrations of the non-radioactive test substances in an Eppendorf centrifuge tube at 30° C. The duration of incubation was 45 minutes. 0.3 n molar ^3 H-N-methylscopolamine (^3 H-NMS) was used as the radioligand. After incubation had been brought to an end by centrifuging at 14,000 g, the radioactivity in the pellet was determined. It represents the sum of the specific and non-specific binding of ^3 H-NMS. The proportion of non-specific binding was defined as the radioactivity which was bound in the presence of 1μ molar quinuclidinyl benzylate. Four measurements were taken in each case. The IC50 values of the nonlabelled test substances were determined graphically. They represent the concentration of test substance at which the specific binding of ^3 H-NMS to the muscarinic receptors in the various organs was inhibited by 50%.

[2] = target: muscarinic receptors (smooth muscle of the fundus of the stomach); assay: Binding to muscarinic receptors, 3H-N-methylscopolamine displacement, smooth muscle of fundus of stomach; set-up: species or system rat (male Sprague-Dawley); settings: rat stomach fundus smooth muscle homogenate 1:100, 0.3 n molar 3H-NMS, pH 7.4, 30° C., 45 minutes; read-out: Receptor binding tests IC50 Smooth muscle fundus of stomach
Method: as §1, §2, §3
Smooth muscle of the fundus of the stomach--1: 100
as §4

[3] = target: T1, muscarinic receptors (heart) (Rattus norvegicus, UniProt P10980); assay: Binding to muscarinic receptors, 3H-N-methylscopolamine displacement, whole heart; set-up: species or system rat (male Sprague-Dawley); settings: rat whole heart homogenate 1:250, 0.3 n molar 3H-NMS, pH 7.4, 30° C., 45 minutes; read-out: Receptor binding tests IC50 Heart
T1 construct: All the organs were then homogenized in a Potter apparatus; from tissue; host or cells: whole heart of male Sprague-Dawley rats, homogenate diluted 1:250
T1 sequence (P10980 1-466): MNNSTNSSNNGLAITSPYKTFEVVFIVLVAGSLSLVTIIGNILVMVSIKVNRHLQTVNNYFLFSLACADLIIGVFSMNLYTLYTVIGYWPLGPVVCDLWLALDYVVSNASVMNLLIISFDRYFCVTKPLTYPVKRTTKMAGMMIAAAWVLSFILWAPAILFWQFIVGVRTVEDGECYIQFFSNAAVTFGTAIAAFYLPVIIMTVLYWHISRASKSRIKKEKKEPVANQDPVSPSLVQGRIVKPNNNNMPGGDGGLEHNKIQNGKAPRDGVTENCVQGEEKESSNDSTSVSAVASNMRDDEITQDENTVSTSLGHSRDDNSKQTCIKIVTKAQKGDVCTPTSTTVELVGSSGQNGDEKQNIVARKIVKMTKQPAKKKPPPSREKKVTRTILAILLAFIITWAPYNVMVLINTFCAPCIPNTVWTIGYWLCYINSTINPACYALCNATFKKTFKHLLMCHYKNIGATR
Method: as §1, §2, §3, §4

[4] = test system: oxotremorine-induced lesions in mucous membrane of stomach (muscarinic receptors); assay: Oxotremorine test: protection against oxotremorine-induced lesions of the gastric mucous membrane (anti-ulcerogenic effect); type: in vivo, rat (female albino, Crl:COBS-CD (SD) BR); settings: iv, rat, 0.62 mg/kg i.v. oxotremorine, 1 mg/kg oral neostigmine; for ED50: ED50, i.v.; for ED70: ED70, i.v.
Source text: (§5) Investigation of the Selectivity of the Antimuscarinic Activity
(§6) Oxotremorine, a specific agonist for muscarinic receptors, produces lesions in the mucous membrane of the stomach in rats and increases their secretion of saliva. This test method was chosen so that any selective activity of an antimuscarinic substance on the stomach could be identified.
(§7) Ten female albino rats (of the Crl:COBS-CD (SD) BR strain) with a body weight of from 120 to 150 gm were used in each treatment group and were kept without food for 24 hours before the start of the test, but given free access to drinking water.
(§8) In order to determine, in preliminary tests, the muscarinic effect of oxotremorine on each of the symptoms studied, a dosage/activity curve was drawn up with at least three dosages for each symptom.
(§9) When testing the antimuscarinic substances, the dosage of oxotremorine which triggered the symptom in question in 90 to 100% of the animals in the preliminary tests was used.
Lesion in mucous membrane of stomach: 0.62 mg/kg i.v.
Each antimuscarinic substance was administered intravenously in uniformly graduated doses 15 minutes before the oxotremorine was administered. Control groups were given corresponding quantities of the solvent and suspending agent instead of the test substance.
(§10) The ED50 values were determined using the method described by LITCHFIELD and WILCOXON [J. Pharmacol. Exp.Ther. 96, 99, (1949)].
The effects on lesions of the mucous membrane of the stomach were evaluated as follows:
The lesions of the gastric mucous membrane were produced by intravenous injection of 0.62 mg/kg of oxotremorin 30 minutes after the oral administration of 1 mg/kg of neostigmine (a cholinesterase inhibitor). 60 minutes after the administration of the neostigmine, the animals were killed, the stomachs were removed, opened and examined for the presence of any lesions in the mucous membrane. The protective effect of the test substances was expressed as the percentage inhibition (percentage of animals without lesions). The ED50 and ED70 values were determined using the method of LITCHFIELD and WILCOXON (supra).

[5] = test system: oxotremorine-induced secretion of saliva (muscarinic receptors); assay: Oxotremorine test: inhibition of oxotremorine-induced secretion of saliva; type: in vivo, rat (female albino, Crl:COBS-CD (SD) BR); settings: iv, 0.25 h; i.v., rat, 15 minutes before 0.083 mg/kg i.v. oxotremorine; read-out: Oxotremorine test Inhibition of salivation ED50
Source text: as §5, §6, §7, §8, §9
Secretion of saliva: 0.083 mg/kg i.v.
Each antimuscarinic substance was administered intravenously in uniformly graduated doses 15 minutes before the oxotremorine was administered. Control groups were given corresponding quantities of the solvent and suspending agent instead of the test substance. […]
as §10

[6] = Mydriasis: effect on pupil size in rats; settings: in vivo, iv, rat, pupil size observed for 10 minutes
Method: The effect of the test substances on the pupil size in rats was investigated as follows:
The substances were administered intravenously to groups of 10 animals in at least three uniformly graduated doses. […] The percentage of test animals in which mydriasis occurred was determined. The ED50 values were again determined using the method of LITCHFIELD and WILCOXON (supra).

Structure (SMILES) | IC50 [1] | IC50 [2] | IC50 [3] | ED50 [4] | ED70 [4] | ED50 [5] | ED50 at 10 min [6]
CN1CCC(OC(=O)N2c3ccccc3NC(=O)c3cscc32)CC1 [A, 4,9-Dihydro-4-{[(1-methyl-4-piperidinyl)oxy]carbonyl}-10H-thieno[3,4-b][1,5]benzodiazepin-10-one] | 40 nM | 200 nM | 180 nM | 0.017 mg/kg | 0.025 mg/kg | 0.1 mg/kg | 0.11 mg/kg
CN1CCC(NC(=O)N2c3ccccc3NC(=O)c3cscc32)CC1 [B, 4,9-Dihydro-4-{[(1-methyl-4-piperidinyl)amino]carbonyl}-10H-thieno[3,4-b][1,5]benzodiazepin-10-one] | 30 nM | 300 nM | 220 nM | 0.017 mg/kg | 0.044 mg/kg | 0.04 mg/kg | 0.037 mg/kg
CN1CCN(NC(=O)N2c3ccccc3NC(=O)c3cscc32)CC1 [C, 4,9-Dihydro-4-{[(4-methyl-1-piperazinyl)amino]carbonyl}-10H-thieno[3,4-b][1,5]benzodiazepin-10-one] | 20 nM | 200 nM | 90 nM |  | 0.019 mg/kg |  | 0.03 mg/kg
